One test has as its target T1, P. aeruginosa ODC (Pseudomonas aeruginosa, UniProt Q9HVQ3).
T1 construct: 14CO2 release from ornithine
T1 sequence (Q9HVQ3 1-387): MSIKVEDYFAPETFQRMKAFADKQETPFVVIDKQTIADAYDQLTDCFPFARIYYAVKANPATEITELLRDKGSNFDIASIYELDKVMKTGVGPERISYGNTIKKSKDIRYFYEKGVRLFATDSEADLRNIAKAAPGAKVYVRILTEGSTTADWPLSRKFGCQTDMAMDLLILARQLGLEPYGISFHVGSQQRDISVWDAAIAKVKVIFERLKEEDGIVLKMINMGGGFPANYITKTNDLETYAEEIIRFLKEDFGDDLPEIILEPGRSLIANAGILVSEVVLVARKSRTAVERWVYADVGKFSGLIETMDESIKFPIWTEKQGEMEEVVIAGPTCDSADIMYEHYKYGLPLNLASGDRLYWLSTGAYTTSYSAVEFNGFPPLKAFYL
In words: time-dependent inhibition of bacterial ODC (in vitro), P. aeruginosa. Format: biochemical. Here is the method:
2-Fluoromethyl-2,5-diaminopentanoic acid (MFMO) was tested for in vitro inhibition of ornithine decarboxylase from Escherichia coli and from Pseudomonas aeruginosa according to the procedure described as follows:
Escherichia coli (M.R.C. 59) and Pseudomonas aeruginosa (A.T.C.C. 9027) were grown as described by Kallio et al., Biochem. J., 200, 69 (1981) in minimal medium [Davis et al., J. Bacteriol., 60, 17 (1950)] at 37° C. Cells were harvested by centrifugation (10 minutes at 10,000 g) and washed once with phosphate-buffered saline, pH 7.2 (0.125M NaCl, 10 mM Na2 HPO4, and 3 mM KH2 PO4). The cell pellet was suspended in 10 mM Tris/HCl (pH 7.5) containing 1 mM dithiothreitol and 0.1 mM EDTA and disrupted by sonication with a Branson Cell Disruptor 350 (5×30 sec, setting 3). Cell debris was removed by centrifugation at 25,000 g for 30 minutes and the supernatant (approximately 16 mg protein/ml), used for the measurement of ornithine decarboxylase, was stored frozen at -20° C. without appreciable loss of activity.
Ornithine decarboxylase activity was measured by the release of ^14 Co2. Assays contained 100 mM tris/HCl (pH 8.25 for E. coli and pH 7.5 for P. aeruginosa), 0.04 mM pyridoxal phosphate, 1mM dithiotheritol, 10 mM L-ornithine, 2.5 μCi D,L-[1-^14 C]ornithine and 80-120 μg bacterial protein in a total volume of 1 ml. […]
Time dependent irreversible inhibition of ornithine decarboxylase was determined according to the method of Kallio et al., Biochem. J., 200, 69 (1981). […] At selected times, 20 μl aliquots of the enzyme incubate were removed and transferred to the reaction flasks in which ODC activity was determined. […] The flasks were kept on ice until all time points were taken and then D,L-[1-^14 C]-ornithine was added and ODC activity was determined at 37° C. […]
Kinetic parameters for the inhibition of ODC were determined as described by Kitz, J. Biol. Chem., 237, 3245 (1962) as modified by Jung et al., Biochem. Biophys. […]

In a further test the target is T2, ornithine decarboxylase (Rattus norvegicus, UniProt P09057).
T2 construct: from tissue; host or cells: rat ventral prostate and thymus
T2 sequence (P09057 1-461): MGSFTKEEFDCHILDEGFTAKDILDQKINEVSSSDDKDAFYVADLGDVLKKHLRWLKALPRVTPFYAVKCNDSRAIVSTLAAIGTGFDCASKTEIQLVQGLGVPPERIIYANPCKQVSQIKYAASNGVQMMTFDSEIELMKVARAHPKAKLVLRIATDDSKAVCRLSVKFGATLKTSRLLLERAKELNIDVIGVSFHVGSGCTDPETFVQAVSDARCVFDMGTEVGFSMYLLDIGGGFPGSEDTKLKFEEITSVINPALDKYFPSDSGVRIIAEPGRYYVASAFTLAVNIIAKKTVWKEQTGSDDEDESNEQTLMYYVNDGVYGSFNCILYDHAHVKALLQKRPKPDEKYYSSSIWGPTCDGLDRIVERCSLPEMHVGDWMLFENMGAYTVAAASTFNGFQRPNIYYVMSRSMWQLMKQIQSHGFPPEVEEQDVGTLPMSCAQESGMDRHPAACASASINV
In words: ODC activity remaining in rat tissues after a single dose (in vivo). Also noted: species or system rats. Here is the method: The ODC inhibitory activity of a compound can be determined in vitro by the method described by B. Metcalf et al., J. Am. Chem. Soc., 100, 2551 (1978) and in vivo by the method of C. Danzin, Life Sciences, 24, 519 (1979).
2-Fluoromethyl-2,5-diaminopentanoic acid and 2-fluoromethyl-2,6-diaminohexanoic acid were tested for inhibition of ornithine decarboxylase in rats according to the procedure of C. Danzin et al., Life Sciences, 24, 519 (1979).

Another test relates to E. coli (M.R.C; 59). In words: growth and polyamine content of E. coli cultures. Conditions: compound by itself. Format: cell-based.
The test system of test [1] is P. aeruginosa (A.T.C.C. 9027). In words: growth and polyamine content of P. aeruginosa cultures. Conditions: compound by itself. Format: cell-based.
A further test has as its target E. coli ODC (Escherichia coli, UniProt P21169). Format: cell-based.
The mark [2] stands for this setting: 6 hours after single oral dose, 12.5 mg/kg.
The mark [3] stands for this setting: 6 hours after single oral dose, 25 mg/kg.
Where [4] appears, read: 6 hours after single oral dose, 50 mg/kg.
Setting [5] is: 6 hours after single oral dose, 100 mg/kg.

Sequence of E. coli ODC (P21169 whole entry): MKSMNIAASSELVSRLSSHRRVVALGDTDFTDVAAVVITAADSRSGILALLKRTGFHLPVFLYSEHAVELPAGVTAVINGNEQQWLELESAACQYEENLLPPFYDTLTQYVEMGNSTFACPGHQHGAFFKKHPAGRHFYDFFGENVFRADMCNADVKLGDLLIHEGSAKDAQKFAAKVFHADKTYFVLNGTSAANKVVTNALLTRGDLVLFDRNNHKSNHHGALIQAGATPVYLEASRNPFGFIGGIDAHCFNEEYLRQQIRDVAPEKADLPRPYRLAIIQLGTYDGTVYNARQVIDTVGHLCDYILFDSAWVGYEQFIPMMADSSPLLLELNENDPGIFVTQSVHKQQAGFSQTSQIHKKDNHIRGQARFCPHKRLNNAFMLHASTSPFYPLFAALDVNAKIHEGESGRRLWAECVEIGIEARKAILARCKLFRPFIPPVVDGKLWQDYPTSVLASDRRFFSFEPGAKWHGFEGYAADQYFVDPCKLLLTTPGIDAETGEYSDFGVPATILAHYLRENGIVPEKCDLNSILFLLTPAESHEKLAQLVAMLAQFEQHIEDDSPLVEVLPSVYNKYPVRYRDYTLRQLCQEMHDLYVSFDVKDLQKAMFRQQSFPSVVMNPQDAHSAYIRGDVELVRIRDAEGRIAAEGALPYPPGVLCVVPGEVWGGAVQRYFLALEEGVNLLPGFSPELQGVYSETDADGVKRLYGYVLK

Usually inhibition stands for the share of the control response that was lost under treatment. At P. aeruginosa ODC (P. aeruginosa ODC, concentration giving half-maximal rate of inhibition, 20° C., pH 7.5), `NCCCC(N)(CF)C(=O)O` (centres unmarked) [MFMO, 2-Fluoromethyl-2,5-diaminopentanoic acid] registered a Ki of 300 µM. Further, the T1/2 at P. aeruginosa ODC (P. aeruginosa ODC, half-life at infinite concentrations) came to 12 min. Besides, the “inhibition of ODC of P. aeruginosa in vitro” value at P. aeruginosa ODC (in vitro, in words) is on record as “inhibit”. Besides, the “ODC Activity remaining in ventral prostate” value at ornithine decarboxylase (5 hours after single i.p. injection, 12.5 mg/kg) is 70.5 ± 12.5 % Control; at ornithine decarboxylase (5 hours after single i.p. injection, 25 mg/kg), 77.0 ± 10.5 % Control; on ornithine decarboxylase (5 hours after single i.p. injection, 50 mg/kg) it was 57.0 ± 13.0 % Control; at ornithine decarboxylase (5 hours after single i.p. injection, 100 mg/kg), 14.5 ± 10.0 % Control; at ornithine decarboxylase (5 hours after single i.p. injection, 200 mg/kg) it was 15.5 ± 1.0 % Control; at ornithine decarboxylase (setting [2]), 98 ± 18 % Control. For the same compound, the “ODC Activity remaining in ventral prostate” value on ornithine decarboxylase (setting [3]) is listed as 67 ± 7 % Control; at ornithine decarboxylase (setting [4]), 45 ± 7 % Control; on ornithine decarboxylase (setting [5]), 44 ± 6 % Control. Moreover, the “ODC Activity remaining in thymus” value at ornithine decarboxylase (setting [2]) is recorded as 81 ± 6 % Control; on ornithine decarboxylase (setting [3]), 93 ± 8 % Control; on ornithine decarboxylase (setting [4]) it was 99 ± 5 % Control; on ornithine decarboxylase (setting [5]), 87 ± 6 % Control. In addition, the “effect on cell growth” value (with E. coli (M.R.C; 59); in test [1]) was “no effect” in each case. For the same compound, the inhibition at 2000 µM on E. coli ODC (bacteria grown in the presence of 2 mM of the compound) amounted to 99%. Also, at E. coli ODC (intact cells, in words), the “inhibition of ODC of E. coli in intact cells” value is “inhibit”.

For the origin of these results see patent publication US4866206A, “2-Halomethyl derivatives of 2-amino acids” (Merrell Dow France et Cie, priority 1988, dated 1989).
